Reference: publication PMC11882969 (Nature Communications, 2025)
Values joined by “and” are separate entries in the source; they are usually repeats but may differ in a detail not shown here. Equal entries are not always repeated.

What was measured:
Type in all cases: cell-based
[1] = target: panel of 320 non-olfactory GPCRs (Homo sapiens, UniProt P32745)
[2] = target: panel of 320 non-olfactory GPCRs (Homo sapiens, UniProt O00270)
[3] = target: panel of 320 non-olfactory GPCRs (Homo sapiens, UniProt Q9HBW0)
[4] = target: panel of 320 non-olfactory GPCRs (Homo sapiens, UniProt O15218)
[5] = target: panel of 320 non-olfactory GPCRs (Homo sapiens, UniProt P30989)
[6] = target: panel of 320 non-olfactory GPCRs (Homo sapiens, UniProt Q7Z7M1)
[7] = target: panel of 320 non-olfactory GPCRs (Homo sapiens, UniProt Q8N6U8)
[8] = target: panel of 320 non-olfactory GPCRs (Homo sapiens, UniProt Q8NFJ6)
panel of 320 non-olfactory GPCRs (Homo sapiens, UniProt Q8NFJ6), sequence (Q8NFJ6 whole entry): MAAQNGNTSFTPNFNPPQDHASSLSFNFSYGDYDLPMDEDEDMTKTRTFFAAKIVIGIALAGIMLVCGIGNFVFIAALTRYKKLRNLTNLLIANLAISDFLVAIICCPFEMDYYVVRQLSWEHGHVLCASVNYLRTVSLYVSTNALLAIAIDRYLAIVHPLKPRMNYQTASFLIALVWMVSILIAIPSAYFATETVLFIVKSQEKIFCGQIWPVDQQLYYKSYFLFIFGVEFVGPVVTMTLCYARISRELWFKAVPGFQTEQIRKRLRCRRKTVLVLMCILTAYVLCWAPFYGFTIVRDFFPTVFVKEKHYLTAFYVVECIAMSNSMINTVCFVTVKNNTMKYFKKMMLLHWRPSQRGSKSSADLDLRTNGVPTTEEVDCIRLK

[9] = target: panel of 320 non-olfactory GPCRs (Homo sapiens, UniProt P21452)
[10] = target: panel of 320 non-olfactory GPCRs (Homo sapiens, UniProt Q96RI0)
[11] = target: panel of 320 non-olfactory GPCRs (Homo sapiens, UniProt P28335)
panel of 320 non-olfactory GPCRs (Homo sapiens, UniProt P28335), sequence (P28335 33-458): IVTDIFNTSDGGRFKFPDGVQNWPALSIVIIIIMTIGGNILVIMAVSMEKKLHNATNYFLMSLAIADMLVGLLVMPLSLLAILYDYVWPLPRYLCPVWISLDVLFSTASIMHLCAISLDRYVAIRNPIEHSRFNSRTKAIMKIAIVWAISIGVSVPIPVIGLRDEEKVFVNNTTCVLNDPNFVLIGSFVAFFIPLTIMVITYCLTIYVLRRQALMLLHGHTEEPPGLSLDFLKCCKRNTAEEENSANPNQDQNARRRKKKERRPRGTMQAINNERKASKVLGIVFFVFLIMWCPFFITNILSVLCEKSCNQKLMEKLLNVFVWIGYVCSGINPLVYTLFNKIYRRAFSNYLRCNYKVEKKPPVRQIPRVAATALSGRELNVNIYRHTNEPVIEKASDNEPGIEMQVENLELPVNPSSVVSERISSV

[12] = target: panel of 320 non-olfactory GPCRs (Homo sapiens, UniProt P25103)
[13] = target: panel of 320 non-olfactory GPCRs (Homo sapiens, UniProt P41595)
panel of 320 non-olfactory GPCRs (Homo sapiens, UniProt P41595), sequence (P41595 whole entry): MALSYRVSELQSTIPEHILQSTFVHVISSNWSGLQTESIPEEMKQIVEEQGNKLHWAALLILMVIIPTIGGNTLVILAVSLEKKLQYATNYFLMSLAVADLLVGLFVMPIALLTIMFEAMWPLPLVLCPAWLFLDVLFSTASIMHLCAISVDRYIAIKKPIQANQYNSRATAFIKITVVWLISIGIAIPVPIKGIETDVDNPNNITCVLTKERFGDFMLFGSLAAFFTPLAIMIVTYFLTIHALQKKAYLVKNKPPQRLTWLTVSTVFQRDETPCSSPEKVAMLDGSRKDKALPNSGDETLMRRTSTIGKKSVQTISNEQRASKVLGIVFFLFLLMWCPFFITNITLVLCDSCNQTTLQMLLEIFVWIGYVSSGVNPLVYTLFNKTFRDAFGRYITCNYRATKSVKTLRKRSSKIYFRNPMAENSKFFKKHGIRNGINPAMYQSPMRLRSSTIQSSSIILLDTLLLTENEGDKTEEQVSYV

[14] = target: panel of 320 non-olfactory GPCRs (Homo sapiens, UniProt O15552)
panel of 320 non-olfactory GPCRs (Homo sapiens, UniProt O15552), sequence (O15552 whole entry): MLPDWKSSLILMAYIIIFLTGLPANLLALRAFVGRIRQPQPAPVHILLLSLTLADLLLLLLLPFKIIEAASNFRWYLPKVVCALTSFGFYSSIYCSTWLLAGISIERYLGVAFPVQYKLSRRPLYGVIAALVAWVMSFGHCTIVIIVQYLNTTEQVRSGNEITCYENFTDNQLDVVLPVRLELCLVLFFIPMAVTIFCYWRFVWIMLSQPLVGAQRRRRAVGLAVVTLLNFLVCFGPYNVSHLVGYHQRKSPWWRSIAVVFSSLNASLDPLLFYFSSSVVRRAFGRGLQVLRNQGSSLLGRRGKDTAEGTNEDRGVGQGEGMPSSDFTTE

[15] = target: panel of 320 non-olfactory GPCRs (Homo sapiens, UniProt Q15077)
panel of 320 non-olfactory GPCRs (Homo sapiens, UniProt Q15077), sequence (Q15077 whole entry): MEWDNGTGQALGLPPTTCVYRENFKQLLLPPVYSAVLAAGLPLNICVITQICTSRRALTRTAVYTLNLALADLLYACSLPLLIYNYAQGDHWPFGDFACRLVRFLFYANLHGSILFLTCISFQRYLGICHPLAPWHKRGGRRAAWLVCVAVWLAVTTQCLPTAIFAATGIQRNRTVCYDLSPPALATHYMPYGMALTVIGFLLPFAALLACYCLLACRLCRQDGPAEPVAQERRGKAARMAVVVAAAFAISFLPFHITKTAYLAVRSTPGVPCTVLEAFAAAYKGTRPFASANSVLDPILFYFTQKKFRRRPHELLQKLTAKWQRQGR

[16] = target: panel of 320 non-olfactory GPCRs (Homo sapiens, UniProt P28221)
[17] = target: panel of 320 non-olfactory GPCRs (Homo sapiens, UniProt P46663)
[18] = target: panel of 320 non-olfactory GPCRs (Homo sapiens, UniProt Q15743)
panel of 320 non-olfactory GPCRs (Homo sapiens, UniProt Q15743), sequence (Q15743 whole entry): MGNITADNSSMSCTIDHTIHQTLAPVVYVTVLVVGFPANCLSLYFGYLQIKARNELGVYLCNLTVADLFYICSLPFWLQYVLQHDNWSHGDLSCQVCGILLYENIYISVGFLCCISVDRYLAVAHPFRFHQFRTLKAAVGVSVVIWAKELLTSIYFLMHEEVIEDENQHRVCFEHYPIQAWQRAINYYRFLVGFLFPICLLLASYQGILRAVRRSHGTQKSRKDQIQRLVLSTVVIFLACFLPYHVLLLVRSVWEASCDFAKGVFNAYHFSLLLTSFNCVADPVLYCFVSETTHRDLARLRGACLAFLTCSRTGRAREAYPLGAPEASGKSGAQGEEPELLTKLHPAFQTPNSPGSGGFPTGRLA

[19] = target: panel of 320 non-olfactory GPCRs (Homo sapiens, UniProt P33032)
panel of 320 non-olfactory GPCRs (Homo sapiens, UniProt P33032), sequence (P33032 whole entry): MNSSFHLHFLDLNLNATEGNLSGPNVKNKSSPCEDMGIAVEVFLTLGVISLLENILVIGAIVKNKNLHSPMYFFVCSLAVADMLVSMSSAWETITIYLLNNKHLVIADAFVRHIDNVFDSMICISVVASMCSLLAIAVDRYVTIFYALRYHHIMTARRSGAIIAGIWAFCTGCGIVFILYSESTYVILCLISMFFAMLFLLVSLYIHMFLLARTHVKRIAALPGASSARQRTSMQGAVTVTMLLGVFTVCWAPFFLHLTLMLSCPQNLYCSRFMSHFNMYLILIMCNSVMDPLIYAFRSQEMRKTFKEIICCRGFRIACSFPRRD

[20] = target: panel of 320 non-olfactory GPCRs (Homo sapiens, UniProt P35348)
[21] = target: panel of 320 non-olfactory GPCRs (Homo sapiens, UniProt Q9HBW9)
[22] = target: panel of 320 non-olfactory GPCRs (Homo sapiens, UniProt Q96P66)
[23] = target: panel of 320 non-olfactory GPCRs (Homo sapiens, UniProt Q8IYL9)
panel of 320 non-olfactory GPCRs (Homo sapiens, UniProt Q8IYL9), sequence (Q8IYL9 whole entry): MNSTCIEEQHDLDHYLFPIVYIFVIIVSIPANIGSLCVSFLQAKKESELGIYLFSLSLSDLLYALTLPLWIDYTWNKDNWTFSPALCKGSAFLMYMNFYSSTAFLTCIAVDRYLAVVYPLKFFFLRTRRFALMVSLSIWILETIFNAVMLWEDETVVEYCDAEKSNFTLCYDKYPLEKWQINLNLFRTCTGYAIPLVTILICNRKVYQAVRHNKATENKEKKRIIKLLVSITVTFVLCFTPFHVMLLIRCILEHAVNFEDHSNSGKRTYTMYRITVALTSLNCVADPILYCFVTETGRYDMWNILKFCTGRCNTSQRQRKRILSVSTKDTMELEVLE

[24] = target: panel of 320 non-olfactory GPCRs (Homo sapiens, UniProt P43220)
panel of 320 non-olfactory GPCRs (Homo sapiens, UniProt P43220), sequence (P43220 24-463): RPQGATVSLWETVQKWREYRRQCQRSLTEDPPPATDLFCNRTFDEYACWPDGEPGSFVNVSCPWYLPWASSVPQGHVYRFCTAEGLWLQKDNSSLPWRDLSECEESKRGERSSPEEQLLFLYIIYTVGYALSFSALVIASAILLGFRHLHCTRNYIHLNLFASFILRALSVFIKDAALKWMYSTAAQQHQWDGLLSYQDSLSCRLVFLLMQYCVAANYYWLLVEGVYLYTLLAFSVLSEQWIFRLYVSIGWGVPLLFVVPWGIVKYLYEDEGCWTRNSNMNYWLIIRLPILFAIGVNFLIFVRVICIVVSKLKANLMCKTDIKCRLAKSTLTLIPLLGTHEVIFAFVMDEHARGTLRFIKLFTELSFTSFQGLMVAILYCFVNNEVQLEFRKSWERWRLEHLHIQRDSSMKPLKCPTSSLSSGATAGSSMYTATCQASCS

[25] = target: panel of 320 non-olfactory GPCRs (Homo sapiens, UniProt P25105)
[26] = target: panel of 320 non-olfactory GPCRs (Homo sapiens, UniProt Q969N4)
[27] = target: panel of 320 non-olfactory GPCRs (Homo sapiens, UniProt Q8TDS4)
[28] = target: panel of 320 non-olfactory GPCRs (Homo sapiens, UniProt P41594)
[29] = target: panel of 320 non-olfactory GPCRs (Homo sapiens, UniProt P08912)
[30] = target: panel of 320 non-olfactory GPCRs (Homo sapiens, UniProt O00222)
[31] = target: panel of 320 non-olfactory GPCRs (Homo sapiens, UniProt Q13324)
[32] = target: panel of 320 non-olfactory GPCRs (Homo sapiens, UniProt P21728)
panel of 320 non-olfactory GPCRs (Homo sapiens, UniProt P21728), sequence (P21728 whole entry): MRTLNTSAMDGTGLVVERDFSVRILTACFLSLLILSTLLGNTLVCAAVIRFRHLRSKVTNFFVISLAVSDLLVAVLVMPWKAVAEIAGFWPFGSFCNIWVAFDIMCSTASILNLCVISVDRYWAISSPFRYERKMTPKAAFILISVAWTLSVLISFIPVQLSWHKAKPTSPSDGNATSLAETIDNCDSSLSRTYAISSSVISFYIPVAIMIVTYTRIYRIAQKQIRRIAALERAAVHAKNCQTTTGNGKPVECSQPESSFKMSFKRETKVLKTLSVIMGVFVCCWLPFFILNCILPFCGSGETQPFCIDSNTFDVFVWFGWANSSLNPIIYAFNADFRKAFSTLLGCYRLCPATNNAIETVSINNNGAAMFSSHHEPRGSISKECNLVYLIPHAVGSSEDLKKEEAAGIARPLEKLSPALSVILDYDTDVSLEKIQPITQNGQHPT

[33] = target: panel of 320 non-olfactory GPCRs (Homo sapiens, UniProt P37288)
[34] = target: panel of 320 non-olfactory GPCRs (Homo sapiens, UniProt Q92633)
panel of 320 non-olfactory GPCRs (Homo sapiens, UniProt Q92633), sequence (Q92633 whole entry): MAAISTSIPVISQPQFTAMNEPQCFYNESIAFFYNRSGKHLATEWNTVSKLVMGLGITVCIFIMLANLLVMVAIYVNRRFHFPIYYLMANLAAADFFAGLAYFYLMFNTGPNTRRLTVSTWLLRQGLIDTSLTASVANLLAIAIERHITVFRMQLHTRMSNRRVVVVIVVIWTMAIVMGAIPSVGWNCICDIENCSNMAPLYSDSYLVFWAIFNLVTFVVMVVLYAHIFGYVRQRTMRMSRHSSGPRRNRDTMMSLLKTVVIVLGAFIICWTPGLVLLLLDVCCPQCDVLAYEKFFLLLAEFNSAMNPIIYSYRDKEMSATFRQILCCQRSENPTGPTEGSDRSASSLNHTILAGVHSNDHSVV

[35] = target: panel of 320 non-olfactory GPCRs (Homo sapiens, UniProt P30872)
[36] = target: panel of 320 non-olfactory GPCRs (Homo sapiens, UniProt P41231)
[37] = target: panel of 320 non-olfactory GPCRs (Homo sapiens, UniProt P28222)

panel of 320 non-olfactory GPCRs (Homo sapiens, UniProt P32745), sequence (P32745 whole entry): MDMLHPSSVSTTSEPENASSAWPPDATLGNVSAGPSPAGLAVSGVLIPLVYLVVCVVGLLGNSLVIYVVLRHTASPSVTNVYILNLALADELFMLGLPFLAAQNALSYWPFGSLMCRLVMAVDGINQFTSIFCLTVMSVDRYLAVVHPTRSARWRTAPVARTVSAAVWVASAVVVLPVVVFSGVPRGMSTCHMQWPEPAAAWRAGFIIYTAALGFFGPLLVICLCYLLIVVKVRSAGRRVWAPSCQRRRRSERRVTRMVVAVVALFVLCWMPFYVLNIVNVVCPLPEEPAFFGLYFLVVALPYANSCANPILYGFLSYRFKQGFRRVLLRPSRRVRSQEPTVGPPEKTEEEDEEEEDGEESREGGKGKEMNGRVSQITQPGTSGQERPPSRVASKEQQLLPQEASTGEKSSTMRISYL

| Structure (SMILES) | Fold of Basal RLU [1] | Fold of Basal RLU [2] | Fold of Basal RLU [3] | Fold of Basal RLU [4] | Fold of Basal RLU [5] | Fold of Basal RLU [6] | Fold of Basal RLU [7] | Fold of Basal RLU [8] | Fold of Basal RLU [9] | Fold of Basal RLU [10] | Fold of Basal RLU [11] | Fold of Basal RLU [12] | Fold of Basal RLU [13] | Fold of Basal RLU [14] | Fold of Basal RLU [15] | Fold of Basal RLU [16] | Fold of Basal RLU [17] | Fold of Basal RLU [18] | Fold of Basal RLU [19] | Fold of Basal RLU [20] | also measured |
| --- | --- | --- | --- | --- | --- | --- | --- | --- | --- | --- | --- | --- | --- | --- | --- | --- | --- | --- | --- | --- | --- |
| COC(=O)[C@@](C)(NC(=O)c1cc(C)n(-c2cccc(C(F)(F)F)c2)n1)c1cccs1 [‘1350] | 0.8 and 0.9 and 0.7 | 1.1 fold and 1.4 fold and 1.2 fold and 1.6 fold | 0.7 and 0.8 and 1.1 and 0.6 | 1.1 fold and 0.8 fold and 1.4 fold | 1.5 fold and 1 fold and 1.1 fold | 1.1 and 0.9 and 1.3 and 0.7 | 1.2 fold and 1.1 fold and 1 fold | 0.9 and 0.7 and 0.8 and 1.1 | 1 fold and 1.1 fold and 0.9 fold | 1.5 and 1.6 and 1 | 1.6 fold and 1 fold and 1.3 fold and 1.2 fold | 1.1 and 1.2 and 1.7 | 0.8 fold and 0.7 fold and 1 fold | 0.9 and 1.2 | 1.4 fold and 1.2 fold and 1.1 fold | 1.1 fold and 0.9 fold and 1.2 fold | 1.6 and 1.3 and 1.1 | 0.9 fold and 1 fold | 1.3 fold and 1 fold and 1.2 fold and 1.1 fold | 1.1 and 0.9 and 1.3 | Fold of Basal RLU [21]: 1.3 fold and 1.6 fold and 2.3 fold and 1.8 fold; Fold of Basal RLU [22]: 1.1 fold and 0.8 fold and 0.9 fold; Fold of Basal RLU [23]: 0.9 fold and 0.8 fold and 1 fold; Fold of Basal RLU [24]: 1.1 and 1 and 0.9 and 0.8; Fold of Basal RLU [25]: 1.3 fold and 0.9 fold and 1.7 fold; Fold of Basal RLU [26]: 0.6 fold and 0.8 fold and 0.4 fold; Fold of Basal RLU [27]: 1 fold and 0.8 fold; Fold of Basal RLU [28]: 0.8 and 0.6 and 0.7; Fold of Basal RLU [29]: 0.9 fold and 1.4 fold and 1.1 fold and 1.7 fold; Fold of Basal RLU [30]: 0.7 and 0.9 and 1.2 and 1.4; Fold of Basal RLU [31]: 0.8 and 0.9; Fold of Basal RLU [32]: 0.9 and 1.1 and 0.8; Fold of Basal RLU [33]: 0.7 and 1 and 0.9; Fold of Basal RLU [34]: 1.3 fold and 1 fold and 1.2 fold; Fold of Basal RLU [35]: 1.6 fold and 1.2 fold and 1.5 fold; Fold of Basal RLU [36]: 1.3 fold and 1.4 fold and 1 fold; Fold of Basal RLU [37]: 1.3 fold and 1.1 fold and 1.2 fold |
| Cc1cc(C(=O)NC(C)(c2ccco2)c2ccco2)nn1-c1cccc(C(F)(F)F)c1 [‘4936] | 1.3 and 0.7 and 1 | 1.4 fold and 1.2 fold and 1.7 fold and 2.2 fold | 0.7 and 0.8 and 1 and 1.2 | 1.7 fold and 1.9 fold and 1.4 fold and 2.5 fold | 1.6 fold and 1.2 fold and 0.9 fold and 1 fold | 0.9 and 0.6 and 1.1 | 1.1 fold and 1.2 fold | 0.9 and 1.3 and 0.8 | 1.3 fold and 1.1 fold and 1.5 fold | 1.2 and 1 and 0.8 and 0.9 | 1.5 fold and 1.3 fold and 1.1 fold | 1.3 and 1.8 and 1.7 and 2 | 1.1 fold and 1.6 fold and 2 fold | 1.3 and 1.4 and 1.2 and 1.1 | 1.2 fold and 1.3 fold | 1.2 fold and 1.1 fold | 1.3 and 1.1 and 0.9 and 1.4 | 0.6 fold and 0.9 fold and 1 fold | 1.1 fold and 1.2 fold and 1.3 fold and 1 fold | 0.6 and 0.7 and 1.1 | Fold of Basal RLU [21]: 1.6 fold and 1.5 fold and 1.1 fold; Fold of Basal RLU [22]: 1.2 fold and 1.3 fold; Fold of Basal RLU [23]: 1.1 fold and 1 fold; Fold of Basal RLU [24]: 0.9 and 0.7; Fold of Basal RLU [25]: 1.1 fold and 1.5 fold and 1.8 fold; Fold of Basal RLU [26]: 1.4 fold and 0.8 fold and 1.2 fold; Fold of Basal RLU [27]: 1.2 fold and 1.1 fold and 1 fold; Fold of Basal RLU [28]: 1.1 and 1.2 and 0.9 and 0.8; Fold of Basal RLU [29]: 1 fold and 1.1 fold and 0.9 fold and 0.8 fold; Fold of Basal RLU [30]: 0.3 and 0.6 and 0.4 and 0.5; Fold of Basal RLU [31]: 0.6 and 0.7; Fold of Basal RLU [32]: 0.7 and 0.9 and 0.8; Fold of Basal RLU [33]: 0.9 and 0.7 and 1.1 and 1; Fold of Basal RLU [34]: 1.1 fold and 1 fold and 0.9 fold; Fold of Basal RLU [35]: 1.3 fold and 1.2 fold and 1.5 fold and 1.8 fold; Fold of Basal RLU [36]: 0.9 fold and 1.2 fold and 1 fold and 1.1 fold; Fold of Basal RLU [37]: 1.4 fold and 1.2 fold and 1.3 fold |
